# Test results from patent US4529587A, “Method of reducing sebum on the hair and skin” (Lever Brothers Company, priority 1982, dated 1985).
# “And” between values parts separate entries of the source, which are not always exact repeats. Identical values can stand only once.
# Key:
# [1] = test system: FFA and "Triglyceride" lipid synthesis; test: in vivo topical treatment of rats, ^14 C-acetate incorporation into FFA and "triglyceride" lipid (thin layer chromatography fractions); set-up: species or system rat
# Experimental: (§1) Ten, 3 week male weanling rats, clipped on left and right flanks, were divided into two groups of five animals. One group was untreated on the left flank while the right flank received the test solution (1 mg/ml biotin sulphone in 70% ethanol:30% water) twice a day (once per day at weekends) for six weeks. The second group received the ethanol/water carrier on the left flank and the test solution on the right. At the end of the treatment the rats were killed, skin removed and divided approximately into epidermis and dermis using a 0.2 mm keratatome cut. Samples of dermis containing most of the sebaceous tissue from either untreated (UN), vehicle (V) or test (T) treated skin were incubated in a nutrient medium (basal eagles medium +10% foetal calf seru, 20 mM hepes pH 7.4, antibiotics, 100 μM sodium acetate containing 1 μCi/ml sodium (1-^14 C) acetate for 19 hours at 37° C. The ^14 C-acetate is metabolically incorporated into lipids and gives a "snap shot" of the lipid synthesis profile over the 19 hour time period. At the end of the incubation samples were washed in ice cold medium without ^14 C-acetate, quenched in ice cold 5% trichloroacetic acid (TCA), homogenised and centrifuged to separate insoluble residue from TCA soluble material ("TCA" fraction). The TCA fraction contains nucleo dtides, small metabolites especially succinate, amino acids, small peptides and free ^14 C-acetate. Lipids were extracted in chloroform:methanol and subject to Folch washing essentially as described by Prottey el al., Brit. J. Dermatol. (1972) 87, 586-607 generating the following fractions : "lipids", "aqueous methanol" containing only a small proportion of skin lipids with a very low ^14 C count and an extracted "solid residue". The total ^14 C count in all these fractions was determined.
# The radioactive lipids were fractionated into free fatty acids (FFA) monoglycerides (MG), diglycerides (trace only) and triglyerides (TG) using a standard, neutral solvent, thin layer chromatography system.
# However ^14 C-acetate is also incorporated into the cholesterol synthetic pathway which should be largely unaffected by the biotin sulphone treatment. This will cause a "dilution" of the reduction seen above. Accordingly, the lipids whose synthesis is dependent on acetyl-SCoA-carboxylase have been isolated. These are free fatty acids (FFA), monoglyceride (MG), diglyeride (trace) triglyceride (TG). It is predicted that a greater reduction in the incorporation of ^14 C-acetate into "triglyceride" lipid should now be observed. As fatty acids are the primary product made by the acetyl-SCoA-carboxylase pathway in the sebaceous gland, results for this lipid class have been included separately, as well as for total "triglyceride" lipid; values of six of the rats are given in Table 3 below: […]
# acetyl-SCoA-carboxylase = acetyl-SCoA-carboxylase activity in cultured human dermal fibroblasts (fixation of ^14 C-sodium bicarbonate into protein); assay type: cell-based
# Experimental: In preliminary experiments the ability of biotin sulphone to reduce the activity of acetyl-SCoa-carboxylase in an in vitro assay was assessed using cultured human dermal fibroblasts as described in Ghneim et al (1981) Biochem. Soc. Trans. 9, 405-6 and references therein. Human dermal fibroblasts were maintained in culture for 3 days with 1 μM biotin sulphone in the presence of a nutrient medium containing 10% foetal calf serum. The level of naturally occurring biotin was about 10 nM. Enzyme activity was assayed in the cell pellet by the fixation of ^14 C-sodium bicarbonate into protein in the presence of acety-CoA under appropriate conditions. Control experiments were done in the absence of biotin sulphone and enzyme activities were calculated with respect to protein.
# [2] = test system: ^14 C-acetate uptake into dermal lipids; test: in vivo topical treatment of rats, ^14 C-acetate uptake into dermal lipids; set-up: species or system rat
# Experimental: as §1
# The following ratio provides a measure of lipid synthesis per unit volume of skin, that is the total ^14 C-acetate uptake into lipids (i.e. amount of lipid synthesis) divided by the ^14 C-acetate uptake into the remaining tissue fractions (i.e. a measure of sample size). (Remaining tissue="TCA" fraction+"solid residue").
# [3] = biotin sulphone treatment, rats
# [4] = individual rats, 1 = 41,151 DPM ^14 C-acetate incorporated into lipid, corrected for sample size, topical 1 mg/ml, six weeks
compound,measurement,setting,value
O=C(O)CCCC[C@H]1[C@H]2NC(=O)N[C@H]2CS1(=O)=O [biotin sulphone],"FFA synthesis, Test, Av.","[1]; average of six rats, 1 = 41,151 DPM ^14 C-acetate, control Av. 1.50",0.91
same,"""Triglyceride"" lipid synthesis (sum of FFA + MG + TG), Test, Av.","[1]; average of six rats, 1 = 41,151 DPM ^14 C-acetate, control Av. 18.24",12.94
same,"change of ""Triglyceride"" lipid synthesis vs control","[1]; average, Test vs V + UN",-29%
same,change of FFA synthesis vs control,"[1]; average, Test vs V + UN",-39%
same,"reduction of ""Triglyceride"" (FFA+MG+TG) synthesis",[1]; [3],29%
same,reduction of denovo FFA synthesis,[1]; [3],39%
same,"""Triglyceride"" lipid synthesis (sum of FFA + MG + TG), Test",[1]; [4],13.93 and 8.58 and 15.17 and 15.38 and 14.74 and 9.85
same,"FFA synthesis, Test",[1]; [4],0.78 and 0.41 and 0.60 and 1.67 and 1.22
same,nCi ^14 C-bicarbonate fixed per mg protein,"acetyl-SCoA-carboxylase; 1 μM biotin sulphone, 3 days, 10% foetal calf serum, control 4.46",3.26 nCi per mg protein
same,Acetyl-SCoA-carboxylase activity (%),"acetyl-SCoA-carboxylase; 1 μM biotin sulphone, 3 days, control = 100",73%
same,reduction in acetyl-SCoA-carboxylase activity,"acetyl-SCoA-carboxylase; culture in the presence of 1 μM biotin sulphone, vs control, 4320 min",27%
same,Av. Test ratio: ^14 C-acetate uptake into lipids divided by uptake into remaining tissue,"[2]; average of ten rats, control (UN or V) Av. 0.59",0.49
same,change of Av. Test ratio vs control,"[2]; average, Test vs UN or V",-18%
same,Test ratio: ^14 C-acetate uptake into lipids divided by uptake into remaining tissue (TCA fraction + solid residue),"[2]; individual rats A-J, 1 mg/ml in 70% ethanol:30% water, topical, twice a day, six weeks, dermis incubated 19 hours at 37° C.",0.43 and 0.23 and 0.59 and 0.44 and 0.52 and 0.53 and 0.58 and 0.39 and 0.73
same,overall reduction in ^14 C-acetate uptake into dermal lipids,"[2]; topical application, ten rats",18%
